Assay: T1 measurements / MR imaging of PA gels at 9.4 T
Assay type: physicochemical
Settings: gel of 0.75 wt. % filler PA 1, agent mixed in at 0.1 mM Gd(III) (1 alone without Gd(III)), spin-echo
Procedure: FIG. 4 depicts results of T1 study of PA gels and mixed PA gels. The concentration of Gd(III) is 0.1 mM in all samples except a and the concentration of filler PA is […] in each case (all samples form self-supporting gels): a corresponds to compound 1 alone and is used as a standard, b refers to 1 mixed with DTPA, c refers to 1 mixed with compound 2, d refers to 1 mixed with compound 3, e through j are mixed with compound 3 and their structures are depicted above. Error bars represent one standard deviation.
Mixing PACAs 2 or 3 with filler PA 1 could be successfully imaged by MR (FIG. 3). The gels are homogeneous in image intensity throughout the samples, which implies uniform mixing of the PACA molecules within the filler PA at MR resolution. If heterogeneous mixing of PAs occur on a large enough scale, domains of bright and dark intensity would be observed. […] The gels were made using a 0.75 wt. % of filler PA. The PACA molecule was mixed into this solution before gelling as was the DTPA. Images were acquired using a spin-echo pulse sequence with TR 750 ms, TC 12 ms, slice thickness of 1 mm, FOV of 2 cm, at 9.4 T on an Oxford superconducting magnet and Bruker software. The T1 of these gels were measured at 3.03±0.05 s, 1.89±0.06 s, 1.08±0.06 s, and 2.81±0.05 s, respectively, the faster T1's resulting in higher contrast.
T1 Measurements. […]

Structure (SMILES): O=C(O)CN(CCN(CC(=O)O)CC(=O)O)CCN(CC(=O)O)CC(=O)O [DTPA, diethylenetriaminepentaacetate]
- T1 of gels: 2.81 ± 0.05 s

— US8834840B1, “Magnetic resonance imaging of self-assembled biomaterial scaffolds” (Northwestern University, priority 2006, dated 2014)
